According to patent US20220387398A1, “IMMUNE TO[…] AND POTENTIATORS” (priority 2019, published 2022):

Legend:
[1] = mouse
Experimental: Levels of ITE and ITC in mouse plasma were determined by liquid chromatography-mass spectrometry (LC-MS). Standard curves were produced by serial dilution of ITE and ITE and used to convert ion counts to absolute concentrations (FIG. 1A).
Each inhibitor was tested independently for its ability to protect ITE from degradation in 0.5 milliliters of mouse plasma (FIG. 2A).

[2] = test system: ITE degradation in mouse plasma; assay: Inhibition of ITE degradation in mouse plasma by esterase inhibitors; assay type: biochemical; conditions: for inhibition of ITE degradation (in words, rank): mouse plasma, 1 millimolar benzil, BNPP and tacrine, 0.5 millimolar rivastigmine, pre-incubated 60 minutes
From the text: Each inhibitor provided at least some protection from degradation.
FIGS. 3-7 show a mass balance analysis of ITE+ITC in the presence of each inhibitor.

SMILES | ITE lost ([1]; 30 min) | ITE degraded ([1]; 60 min) | inhibition of ITE degradation (in words, rank) [2] | ITE protected from degradation ([2]; 0.5 mL mouse plasma, at 120 minutes, 0.5 millimolar rivastigmine pre-incubated 60 minutes)
COC(=O)c1csc(C(=O)c2c[nH]c3ccccc23)n1 [ITE, 2-(1 H-Indol-3-ylcarbonyl)-4-thiazolecarboxylic acid methyl ester] | over 60% | about 90% |  | 
Nc1c2c(nc3ccccc13)CCCC2 [Tacrine, tacrine] |  |  | weaker inhibitors | 
O=C(C(=O)c1ccccc1)c1ccccc1 [Benzil, benzil] |  |  | weakest single inhibitor | 
O=[N+]([O-])c1ccc(OP(=O)(O)Oc2ccc([N+](=O)[O-])cc2)cc1 [BNPP, bis-para-nitrophenylphosphate] |  |  | weaker inhibitors | 
CCN(C)C(=O)Oc1cccc([C@H](C)N(C)C)c1 [Rivastigmine, rivastigmine] |  |  | best inhibitor of ITE degradation | ~70%
